Data from patent US11680082B2, “Conjugates of montelukast and peptides” (ENLITISA (SHANGHAI) PHARMACEUTICAL CO., LTD, priority 2018, dated 2023).
Non-standard residues stand in square brackets, D forms with d. No end group written: not given here. Hyp = O=C(O)[C@@H]1C[C@@H](O)CN1

Assays:
[1] = tested on: phenol red excretion in trachea; experiment: Expectorant experiment, phenol red excretion method; format: in vivo, mice; conditions: Positive control, 0.15 g/kg intragastric, 5 days
Method: 50 Mice were randomly divided into 5 groups according to body weight: Normal saline, negative control group, ammonium chloride positive control group and high, medium and low dose of test drug (either Compound A, above, or Compound E, below). 10 mice in each group, 5 males and 5 females.
Compound A was administered via atomization inhalation (0.15 mL/min) for 1 min, once daily for 5 days and the positive control drug was administered by intragastric administration for 5 days.
Half an hour after the last administration of Compound A, 5% phenol red solution was injected into the abdominal cavity. The mice were sacrificed after a further half an hour. The skin of the neck was removed and the trachea from the thyroid cartilage to the bifurcation was separated, soaked it in 5% sodium bicarbonate solution with constant shaking. The sodium bicarbonate solution was used to detect the phenol red content.
The absorbance at 558 nm was detected by spectrophotometry (721G Spectrophotometer, Shanghai Jingke, Shanghai, China). The optical density value was used to calculate the phenol red content In the trachea by reference to the phenol red standard curve. The results of each group and the negative control group were tested for significant t-test.

diabetic skin wound [2] = experiment: Diabetic wound model I; format: in vivo, db/db mice (C57BL/KsJ-db/db); conditions: histology
Method: A similar experiment with essentially the same protocol to that described in Example 6 above was carried out on 8 to 12 week-old male db/db mice (C57BL/KsJ-db/db), with a body weight of 35-45 g/mouse (Changzhou Cvens Experimental Animal Co. Ltd.).
An EMS skin biopsy punch with a 18 mm diameter was used to make wounds.
Different drugs were administrated topically at 50 μL/wound, once daily from Day 0 to Day 12. The model group was given same amount of normal saline.
Photographs were taken for each wound every other day from Day 0. Photos were scanned into a computer, and wound areas calculated using ImageJ image analysis software (National Institute of Health, USA).
The unhealed wound area was expressed as a percentage of the original wound area: At/A0×100%, where A0 and At refer to the initial area at Day 0 and the wound area at the date of measurement (time t), respectively.
Histological specimens were analyzed and skin regeneration, fibroblast proliferation, collagen regeneration scores (Masson score) and inflammation scores were estimated as follows.
The HE and Masson stained slices were observed under an optical microscope and were scored (1, 2 or 3 points) according to the following criteria. […]

[3] = tested on: xylene induced ear swelling; experiment: Mouse ear swelling model I (xylene); format: in vivo, BALB/c mice; conditions: xylene on right ear, topical treatment, 40 minutes; (right ear weight−left ear weight)/left ear weight
Method: The mice were randomly divided into 7 groups as described in Table 1 below, with 5 mice in each group
The left ear of each mouse was used as autologous control. 20 μL of xylene (Shanghai Aladdin Bio-Chem Technology Co., Ltd., Shanghai, China) was applied to the right ear of each mouse, both inside and outside. The ear started to swell in about 4 minutes. Then, 0.08 g of each study treatments or vehicles were applied to the right ears in each group. The mice were put back into their cages.
Vehicle-1 in Table 1 below is the cream base without active ingredients. Vehicle-2 in Table 1 below is the gel base without active ingredients.
The mice were sacrificed by cervical dislocation after 40 minutes. The left and right ears were cut off. A skin pouch (Electron Microscopy Sciences, Hatfield, Pa., USA) with a diameter of 8 mm was used to take a piece of the ear from the same site of both ears.

diabetic skin wound [4] = experiment: Diabetic wound model II; format: in vivo, db/db mice (C57BL/KsJ-db/db)
Method: A similar experiment with essentially the same protocol to that described in Example 7 above was carried out on 8 to 12 week-old male db/db mice (C57BL/KsJ-db/db) with a body weight of 35-45 g/mouse (Changzhou Cvens Experimental Animal Co. Ltd.).
Different concentrations of Compound A and Compound 1 (“A” and “1” respectively, as indicated in the Table 5 below) were prepared in substantially the same way as described in Examples 6 and 7 above.
Different drugs were administrated topically at 50 μL/wound, once daily from Day 0 to Day 12, as show in Table 5 below.
The model group was given same amount of normal saline. There were 8 mice in each group. 4 mice were in the control group. The skin pieces taken during wound creation were used as the samples at Day 7 for the control group.
Histological specimens were analyzed as described in Example 7 above, except that the collagen deposition score criterion for the Masson stained sample were as follows. A comparison was made with normal tissue. No clear blue staining was given 0 points; blue fiber appearing in a scattered pattern was scored as 1 points; if more blue fiber appeared, this was scored as 2 points, and a diffuse blue colour was given 3 points.

## Cl.N [NH4Cl, ammonium chloride]
[1]
  Phenol red concentration: 10.335 ± 0.337 µg/mL

## Ala-Lys-Pro-Ser-Tyr-Hyp-Hyp-Thr-Tyr-Lys (AKPSY[Hyp][Hyp]TYK; not fully specified; printed as Ala-Lys-Pro-Ser-Tyr-Hyp-Hyp-Thr-Tyr-Lys) [Compound 1]
Diabetic skin wound [2]
  Fibroblast proliferation score: could promote
  Skin regeneration score: could promote the skin regeneration
[3]
  Swelling rate: 61.5%
Diabetic skin wound [4]; high dose (H), D1
  ratio of remaining wound area of initial wound (Mean): 1.000
Diabetic skin wound [4]; high dose (H), D2
  ratio of remaining wound area of initial wound (Mean): 1.051
Diabetic skin wound [4]; high dose (H), D4
  ratio of remaining wound area of initial wound (Mean): 0.821
Diabetic skin wound [4]; high dose (H), D6
  ratio of remaining wound area of initial wound (Mean): 0.718
Diabetic skin wound [4]; high dose (H), D8
  ratio of remaining wound area of initial wound (Mean): 0.486
Diabetic skin wound [4]; high dose (H), D10
  ratio of remaining wound area of initial wound (Mean): 0.478
Diabetic skin wound [4]; high dose (H), D12
  ratio of remaining wound area of initial wound (Mean): 0.368
Diabetic skin wound [4]; low dose (L), D1
  ratio of remaining wound area of initial wound (Mean): 1.000
Diabetic skin wound [4]; low dose (L), D2
  ratio of remaining wound area of initial wound (Mean): 0.860
Diabetic skin wound [4]; low dose (L), D4
  ratio of remaining wound area of initial wound (Mean): 0.753
Diabetic skin wound [4]; low dose (L), D6
  ratio of remaining wound area of initial wound (Mean): 0.593
Diabetic skin wound [4]; low dose (L), D8
  ratio of remaining wound area of initial wound (Mean): 0.467
Diabetic skin wound [4]; low dose (L), D10
  ratio of remaining wound area of initial wound (Mean): 0.433
Diabetic skin wound [4]; low dose (L), D12
  ratio of remaining wound area of initial wound (Mean): 0.306
Diabetic skin wound [4]; low dose, earlier stages after wound infliction
  wound healing: prompted wound healing in the earlier stages
Diabetic skin wound [4]; medium dose (M), D1
  ratio of remaining wound area of initial wound (Mean): 1.000
Diabetic skin wound [4]; medium dose (M), D2
  ratio of remaining wound area of initial wound (Mean): 0.991
Diabetic skin wound [4]; medium dose (M), D4
  ratio of remaining wound area of initial wound (Mean): 0.895
Diabetic skin wound [4]; medium dose (M), D6
  ratio of remaining wound area of initial wound (Mean): 0.786
Diabetic skin wound [4]; medium dose (M), D8
  ratio of remaining wound area of initial wound (Mean): 0.552
Diabetic skin wound [4]; medium dose (M), D10
  ratio of remaining wound area of initial wound (Mean): 0.490
Diabetic skin wound [4]; medium dose (M), D12
  ratio of remaining wound area of initial wound (Mean): 0.344
